Results published in EPA's ToxValDB 9.5 (doi:10.2903/j.efsa.2014.3805).
Converted amounts (≈) assume the structure as drawn.

Assays:
[1] = system: Typhlodromus pyri; test: LR50; higher = less toxic; details: acute; duration: 7 days; mortality
[2] = system: Aphidius rhopalosiphi; test: LR50; higher = less toxic; details: acute; duration: 48 hours; mortality
[3] = system: Oncorhynchus mykiss; details: acute; duration: 96 hours; mortality
[4] = system: Colinus virginianus
[5] = system: Pimephales promelas; details: chronic/long-term; duration: 28 days; body weight
[6] = system: Daphnia magna; details: chronic/long-term; duration: 21 days; body weight
[7] = system: Apis mellifera; details: acute; oral; unspecified; mortality
[8] = system: Cyprinus carpio; details: acute; duration: 96 hours; mortality
[9] = system: Tagia sp.
[10] = system: Rattus norvegicus
[11] = system: Bibionidae; details: chronic/long-term; duration: 28 days; body weight

Q: For COc1ccccc1N1CCS/C1=C(/C#N)Sc1cc(C(F)(F)F)ccc1F [Flutianil], which LR50 [1] is on record?
A: > 480 g/ha

Q: And the LR50 [2]?
A: > 480 g/ha

Q: What about the LC50 [3] of the same molecule?
A: 0.051 µg/mL (≈ 0.12 µM)

Q: What about the LD50 ([4]; acute, oral, mortality) of the same molecule?
A: > 2250 mg/kg

Q: What about the NOAEL ([4]; reproduction developmental) of the same molecule?
A: 186 mg/kg-day

Q: And the NOEC [5]?
A: 0.000781 mg/L

Q: What about the NOEC [6] of the same molecule?
A: 0.00697 mg/L

Q: And the LD50 [7]?
A: > 100 µg/piece

Q: What about the LC50 [8] of the same molecule?
A: > 0.87 µg/mL

Q: And the LC50 ([9]; acute, duration: 14 days, mortality)?
A: > 500 mg/kg

Q: What about the NOEC ([9]; chronic/long-term, duration: 8 weeks, reproduction) of the same molecule?
A: 6.25 mg/kg

Q: What about the LD50 ([10]; acute, oral, mortality) of the same molecule?
A: > 2000 mg/kg

Q: What about the NOAEL ([10]; chronic, duration: 2 years, histopathology: nonneoplastic) of the same molecule?
A: 81.9 mg/kg-day

Q: And the NOAEL ([10]; developmental, development)?
A: 100 mg/kg-day

Q: And the NOAEL ([10]; reproduction developmental, organ weight)?
A: 123 mg/kg-day

Q: What about the NOEC [11] of the same molecule?
A: 396 mg/kg
